The text below walks through data of paper PMC7416749 (Journal of genetics and genomics = Yi chuan xue bao, 2020).

Experiment [1] has as its system dP75 IBD-containing C-terminus region (residues 209–445). The experiment is described as follows: Isothermal titration calorimetry. As to conditions: ITC, 20 °C, mutant peptides 984–1004 compared with wild type. The format is binding, Drosophila. Background: In ITC the heat of successive injections is recorded.
For experiment [2], the target named is dP75 IBD-containing C-terminus region (residues 209–445) (Drosophila melanogaster). Nature of the experiment: ITC.

“F989A: Jil-1 peptide 984–1004 with F989A substitution (EVQADAYGFDENAPPLPLPEE; UniProt Q9V3I5 984-1004, looked up, variant F989A)”: in experiment [1], the “effect of substitution in Jil-1 peptide 984–1004 on binding to dP75 (in words)” value is “dramatically reduced the binding”.
Still for that read-out and setting: as for “F992A: Jil-1 peptide 984–1004 with F992A substitution (EVQADFYGADENAPPLPLPEE; UniProt Q9V3I5 984-1004, looked up, variant F992A)”, the entry is “dramatically reduced the binding”.
Consider “G991V: Jil-1 peptide 984–1004 with G991V substitution (EVQADFYVFDENAPPLPLPEE; UniProt Q9V3I5 984-1004, looked up, variant G991V)”, for which the “effect of substitution in Jil-1 peptide 984–1004 on binding to dP75 (in words)” value in experiment [1] was “dramatically reduced the binding”.
As a reminder, the Kd is the constant that tells how readily two partners part at equilibrium. In turn, “Jil-1 peptide from the proximal site (…; residues 984–1004)” displayed a Kd in experiment [2] of 0.8 µM.

B1: Jil-1 peptide at the distal site (…; residues 1102–1112) (peptide)
peptide: KREENFYGFSK
For the molecule B1, in experiment [2], the dissociation constant Kd worked out at 120 µM.
